Bridge positions count the residues as written; N and C are the ends. Square brackets hold non-standard residues; d marks the D form. Peptide text beside a SMILES is read from it. Nle = CCCC[C@H](N)C(=O)O
Biological target: T1, human Kv1.3 voltage-gated K+ channel (Homo sapiens, UniProt P22001)
T1 construct: host or cells: CHO-DUKX
Experiment: cell-based
Details: inhibition of thallium flux, CHO-DUKX cells with human Kv1.3; read-out: IC50

T1 sequence (P22001 whole entry): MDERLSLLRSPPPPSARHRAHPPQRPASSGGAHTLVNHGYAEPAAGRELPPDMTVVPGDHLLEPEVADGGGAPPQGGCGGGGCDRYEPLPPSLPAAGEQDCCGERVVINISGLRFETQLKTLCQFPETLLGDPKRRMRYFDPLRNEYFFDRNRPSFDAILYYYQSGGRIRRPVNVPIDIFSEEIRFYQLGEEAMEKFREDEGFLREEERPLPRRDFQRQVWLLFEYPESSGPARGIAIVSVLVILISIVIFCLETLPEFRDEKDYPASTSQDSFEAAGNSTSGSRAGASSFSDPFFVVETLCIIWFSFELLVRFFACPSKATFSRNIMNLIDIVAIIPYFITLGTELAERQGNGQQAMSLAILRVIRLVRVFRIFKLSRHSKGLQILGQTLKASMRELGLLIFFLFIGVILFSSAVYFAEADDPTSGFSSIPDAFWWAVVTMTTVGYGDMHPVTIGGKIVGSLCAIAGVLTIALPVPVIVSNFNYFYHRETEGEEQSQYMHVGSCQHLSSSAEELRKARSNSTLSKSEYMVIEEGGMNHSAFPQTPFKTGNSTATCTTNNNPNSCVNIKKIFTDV

In the case of CCCC[C@H](NC(=O)[C@@H]1CCCN1)C(=O)N[C@@H](CCC(=O)O)C(=O)N[C@@H](CCCC)C(=O)N[C@@H](CCCNC(=N)N)C(=O)N[C@H]1CSSC[C@@H]2NC(=O)[C@H](CCCCN)NC(=O)CNC(=O)[C@H](Cc3ccccc3)NC(=O)[C@H]([C@@H](C)CC)NC(=O)[C@H](CO)NC(=O)CNC(=O)[C@H]([C@@H](C)CC)NC(=O)[C@H](C)NC(=O)[C@H](C)NC(=O)[C@H](CC(C)C)NC(=O)[C@@H]3CSSC[C@@H](C(=O)N[C@@H](Cc4ccc(O)cc4)C(=O)N4CCC[C@H]4C(=O)N[C@@H](CCCNC(=N)N)C(=O)O)NC(=O)[C@H](CCCCN)NC(=O)[C@H](CSSC[C@H](NC(=O)[C@H](CCC(=O)O)NC(=O)[C@H](C(C)C)NC(=O)[C@H](CO)NC(=O)[C@H](Cc4ccc(O)cc4)NC(=O)[C@H](CO)NC1=O)C(=O)N[C@@H](CCCCN)C(=O)N[C@@H](CCC(N)=O)C(=O)N[C@@H](CCCCN)C(=O)N3)NC(=O)[C@H](CCCCN)NC(=O)[C@H](CCCCN)NC(=O)[C@H](CC(N)=O)NC(=O)[C@H](CCCC)NC2=O [Compound 144] (H-P[Nle]E[Nle]RCSYSVECKQKCLAAIGSIFGKC[Nle]NKKCKCYPR-OH; disulfide 6-27, 12-32, 16-34), the IC50 is reported as 0.739 nM.
CCCC[C@H](NC(=O)[C@@H]1CCCN1)C(=O)N[C@@H](CCC(=O)O)C(=O)N[C@@H](CCCC)C(=O)N[C@@H](CCCNC(=N)N)C(=O)N[C@H]1CSSC[C@@H]2NC(=O)[C@H](CCCCN)NC(=O)CNC(=O)[C@H](Cc3ccccc3)NC(=O)[C@H]([C@@H](C)CC)NC(=O)[C@H](CO)NC(=O)CNC(=O)[C@H]([C@@H](C)CC)NC(=O)[C@H](C)NC(=O)[C@H](C)NC(=O)[C@H](CC(C)C)NC(=O)[C@@H]3CSSC[C@@H](C(=O)N[C@@H](Cc4ccc(O)cc4)C(=O)N4CCC[C@H]4C(=O)N[C@@H](CCCNC(=N)N)C(=O)N[C@@H](CCCNC(=N)N)C(=O)O)NC(=O)[C@H](CCCCN)NC(=O)[C@H](CSSC[C@H](NC(=O)[C@H](CCC(=O)O)NC(=O)[C@H](C(C)C)NC(=O)[C@H](CO)NC(=O)[C@H](C)NC(=O)[C@H](CO)NC1=O)C(=O)N[C@@H](CCCCN)C(=O)N[C@@H](CCC(N)=O)C(=O)N[C@@H](CCCCN)C(=O)N3)NC(=O)[C@H](CCCCN)NC(=O)[C@H](CCCCN)NC(=O)[C@H](CC(N)=O)NC(=O)[C@H](CCCC)NC2=O [Compound 122] (H-P[Nle]E[Nle]RCSASVECKQKCLAAIGSIFGKC[Nle]NKKCKCYPRR-OH; disulfide 6-27, 12-32, 16-34) gave an IC50 of 0.226 nM.
Work on CC[C@H](C)[C@@H]1NC(=O)[C@H](CO)NC(=O)CNC(=O)[C@H](C)NC(=O)[C@H](CCCCN)NC(=O)[C@H](CC(C)C)NC(=O)[C@@H]2CSSC[C@@H](C(=O)N[C@@H](Cc3ccc(O)cc3)C(=O)N3CCC[C@H]3C(=O)N[C@@H](CCCNC(=N)N)C(N)=O)NC(=O)[C@H](CCCCN)NC(=O)[C@@H]3CSSC[C@H](NC(=O)[C@H](CCC(=O)O)NC(=O)[C@H](C(C)C)NC(=O)[C@H](CO)NC(=O)[C@H](C)NC(=O)[C@H](CO)NC(=O)[C@@H](NC(=O)[C@H](CCCNC(=N)N)NC(=O)[C@H](CCSC)NC(=O)[C@H](CC(=O)O)NC(=O)[C@H](CCSC)NC(=O)[C@@H](N)CC(N)=O)CSSC[C@H](NC(=O)[C@H](CCCCN)NC(=O)CNC(=O)[C@H](Cc4ccccc4)NC1=O)C(=O)N[C@@H](CCSC)C(=O)N[C@@H](CC(N)=O)C(=O)N[C@@H](CCCCN)C(=O)N[C@@H](CCCCN)C(=O)N3)C(=O)N[C@@H](CCCCN)C(=O)N[C@@H](CCC(N)=O)C(=O)N[C@@H](CCCCN)C(=O)N2 [Compound 61] (H-NMDMRCSASVECKQKCLKAGSIFGKCMNKKCKCYPR-NH2; disulfide 6-26, 12-31, 16-33) yielded an IC50 of 0.4 nM.
CC[C@H](C)[C@@H]1NC(=O)[C@H](C)NC(=O)[C@H](CCCCN)NC(=O)[C@H](CC(C)C)NC(=O)[C@@H]2CSSC[C@@H](C(=O)N[C@@H](Cc3ccc(O)cc3)C(=O)N3CCC[C@H]3C(=O)N[C@@H](CCCNC(=N)N)C(=O)O)NC(=O)[C@H](CCCCN)NC(=O)[C@@H]3CSSC[C@H](NC(=O)[C@H](CCC(=O)O)NC(=O)[C@H](C(C)C)NC(=O)[C@H](CO)NC(=O)[C@H](C)NC(=O)[C@H](CO)NC(=O)[C@@H](NC(=O)[C@H](CCCNC(=N)N)NC(=O)[C@H](CCSC)NC(=O)[C@H](CC(=O)O)NC(=O)[C@H](CCSC)NC(=O)[C@H](CC(N)=O)NC(=O)CNC(=O)CN)CSSC[C@H](NC(=O)[C@H](CCCCN)NC(=O)CNC(=O)[C@H](Cc4ccccc4)NC(=O)[C@H]([C@@H](C)CC)NC(=O)[C@H](CO)NC(=O)CNC1=O)C(=O)N[C@@H](CCSC)C(=O)N[C@@H](CC(N)=O)C(=O)N[C@@H](CCCCN)C(=O)N[C@@H](CCCCN)C(=O)N3)C(=O)N[C@@H](CCCCN)C(=O)N[C@@H](CCC(N)=O)C(=O)N[C@@H](CCCCN)C(=O)N2 [Compound 11] (H-GGNMDMRCSASVECKQKCLKAIGSIFGKCMNKKCKCYPR-OH; disulfide 8-29, 14-34, 18-36) was tested, and the IC50 was 0.3 nM.
CCCC[C@H](NC(=O)[C@@H]1CCCN1)C(=O)N[C@@H](CCC(=O)O)C(=O)N[C@@H](CCCC)C(=O)N[C@@H](CCCNC(=N)N)C(=O)N[C@H]1CSSC[C@@H]2NC(=O)[C@H](CCCCN)NC(=O)CNC(=O)[C@H](Cc3ccccc3)NC(=O)[C@H]([C@@H](C)CC)NC(=O)[C@H](CO)NC(=O)CNC(=O)[C@H]([C@@H](C)CC)NC(=O)[C@H](C)NC(=O)[C@H](C)NC(=O)[C@H](CC(C)C)NC(=O)[C@@H]3CSSC[C@@H](C(=O)N[C@@H](Cc4ccc(O)cc4)C(=O)N4CCC[C@H]4C(=O)N[C@@H](CCCNC(=N)N)C(=O)O)NC(=O)[C@H](CCCCN)NC(=O)[C@H](CSSC[C@H](NC(=O)[C@H](CCC(=O)O)NC(=O)[C@H](C(C)C)NC(=O)[C@@H]4CCCN4C(=O)[C@H](C)NC(=O)[C@H](CO)NC1=O)C(=O)N[C@@H](CCCCN)C(=O)N[C@@H](CCC(N)=O)C(=O)N[C@@H](CCCCN)C(=O)N3)NC(=O)[C@H](CCCCN)NC(=O)[C@H](CCCCN)NC(=O)[C@H](CC(N)=O)NC(=O)[C@H](CCCC)NC2=O [Compound 137] (H-P[Nle]E[Nle]RCSAPVECKQKCLAAIGSIFGKC[Nle]NKKCKCYPR-OH; disulfide 6-27, 12-32, 16-34) gave an IC50 of 0.333 nM.
Compound CCCC[C@H](NC(=O)[C@@H](N)CC(N)=O)C(=O)N[C@@H](CC(=O)O)C(=O)N[C@@H](CCSC)C(=O)N[C@@H](CCCNC(=N)N)C(=O)N[C@H]1CSSC[C@@H]2NC(=O)[C@H](CCCCN)NC(=O)CNC(=O)[C@H](Cc3ccccc3)NC(=O)[C@H]([C@@H](C)CC)NC(=O)[C@H](CO)NC(=O)CNC(=O)[C@H]([C@@H](C)CC)NC(=O)[C@H](C)NC(=O)[C@H](CCCCN)NC(=O)[C@H](CC(C)C)NC(=O)[C@@H]3CSSC[C@@H](C(=O)N[C@@H](Cc4ccc(O)cc4)C(=O)N4CCC[C@H]4C(=O)N[C@@H](CCCNC(=N)N)C(N)=O)NC(=O)[C@H](CCCCN)NC(=O)[C@H](CSSC[C@H](NC(=O)[C@H](CCC(=O)O)NC(=O)[C@H](C(C)C)NC(=O)[C@H](CO)NC(=O)[C@H](C)NC(=O)[C@H](CO)NC1=O)C(=O)N[C@@H](CCCCN)C(=O)N[C@@H](CCC(N)=O)C(=O)N[C@@H](CCCCN)C(=O)N3)NC(=O)[C@H](CCCCN)NC(=O)[C@H](CCCCN)NC(=O)[C@H](CC(N)=O)NC(=O)[C@H](CCSC)NC2=O [Compound 14] (H-N[Nle]DMRCSASVECKQKCLKAIGSIFGKCMNKKCKCYPR-NH2; disulfide 6-27, 12-32, 16-34) has an IC50 of 0.16 nM.
Compound “H-NMDMRCSASVECKQKCLKAIGSIFGKCMNKKCKCYPRHRRK-NH2 (disulfide 6-27, 12-32, 16-34) [Compound 24]” has an IC50 of 0.073 nM.

Source: patent US11780893B2, “Kv1.3 blockers” (Zealand Pharma A/S, priority 2019, dated 2023)
